From ChEMBL document CHEMBL4270597, “Donepezil-butylated hydroxytoluene (BHT) hybrids as Anti-Alzheimer's disease agents with cholinergic, antioxidant, and neuroprotective properties” (Eur J Med Chem, 2018)

Tests used:
PC-12 [1] = assay: Neuroprotective activity against H2O2-induced apoptosis in rat PC12 cells assessed as necrotic cells at 10 uM after 24 hrs by Annexin V-FITC/propidium iodide staining-based flow cytometry (reference value: 4.9%); type: functional
PC-12 [2] = assay: Reversal of H2O2-induced calcium overload in rat PC12 cells assessed as mean fluorescence intensity at 2.5 uM after 48 hrs by Fluo-3/AM probe based flow cytometry (reference value: 454014); type: functional
PC-12 [3] = assay: Neuroprotective activity against H2O2-induced apoptosis in rat PC12 cells assessed as viable cells at 2.5 uM after 24 hrs by Annexin V-FITC/propidium iodide staining-based flow cytometry (reference value: 68.4%); type: functional; settings: PC-12, 24 h, read-out: Activity
BV-2 [4] = assay: Inhibition of LPS-induced intracellular ROS production in mouse BV2 cells assessed as mean fluorescence intensity at 10 uM incubated with LPS for 18 hrs followed by compound addition measured after 36 hrs by DCFH-DA probe based flow cytometry (reference value: 493530); type: functional
PC-12 [5] = assay: Neuroprotective activity against H2O2-induced apoptosis in rat PC12 cells assessed as necrotic cells at 2.5 uM after 24 hrs by Annexin V-FITC/propidium iodide staining-based flow cytometry (reference value: 4.9%); type: functional
PC-12 [6] = assay: Neuroprotective activity against H2O2-induced apoptosis in rat PC12 cells assessed as viable cells at 10 uM after 24 hrs by Annexin V-FITC/propidium iodide staining-based flow cytometry (reference value: 68.4%); type: functional; settings: PC-12, 24 h, read-out: Activity
BV-2 [7] = assay: Inhibition of LPS-induced intracellular ROS production in mouse BV2 cells assessed as mean fluorescence intensity incubated with LPS for 18 hrs followed by compound addition measured after 36 hrs by DCFH-DA probe based flow cytometry; type: functional, cell-based
[8] = Effective permeability of the compound at […] after 16 hrs by PAMPA-BBB assay; type: ADME; settings: read-out: Peff
Mus musculus [9] = assay: Acute toxicity in mouse assessed as abnormal changes in liver at 2000 mg/kg, po measured continuously for first 4 hrs and intermittently for next 24 hrs and occasionally for 14 days by hematoxylin and eosin staining based microscopic method; type: organism-based; settings: in vivo
Mus musculus [10] = assay: Toxicity in ICR mouse assessed as diarrhea at 5 to 10 mg/kg, po administered for 10 consecutive days; type: organism-based; settings: in vivo
[11] = Antioxidant activity assessed as trolox equivalent of AAPH-induced radical scavenging activity preincubated for 15 mins followed by AAPH addition measured every minute for 120 mins by ORAC-FL based fluorescein assay; type: functional
PC-12 [12] = assay: Neuroprotective activity against H2O2-induced apoptosis in rat PC12 cells assessed as necrotic cells at 5 uM after 24 hrs by Annexin V-FITC/propidium iodide staining-based flow cytometry (reference value: 4.9%); type: functional
Mus musculus [13] = assay: Acute toxicity in mouse assessed as abnormal changes in heart at 2000 mg/kg, po measured continuously for first 4 hrs and intermittently for next 24 hrs and occasionally for 14 days by hematoxylin and eosin staining based microscopic method; type: organism-based; settings: in vivo
[14] = target: Cholinesterase (Equus caballus) (UniProt P81908); assay: Inhibition of equine serum BuChE at 100 uM using butyrylthiocholine iodide as substrate incubated for 5 mins followed by substrate addition measured after 180 secs by Ellman's method relative to control
Sequence of Cholinesterase (Equus caballus) (P81908 whole entry): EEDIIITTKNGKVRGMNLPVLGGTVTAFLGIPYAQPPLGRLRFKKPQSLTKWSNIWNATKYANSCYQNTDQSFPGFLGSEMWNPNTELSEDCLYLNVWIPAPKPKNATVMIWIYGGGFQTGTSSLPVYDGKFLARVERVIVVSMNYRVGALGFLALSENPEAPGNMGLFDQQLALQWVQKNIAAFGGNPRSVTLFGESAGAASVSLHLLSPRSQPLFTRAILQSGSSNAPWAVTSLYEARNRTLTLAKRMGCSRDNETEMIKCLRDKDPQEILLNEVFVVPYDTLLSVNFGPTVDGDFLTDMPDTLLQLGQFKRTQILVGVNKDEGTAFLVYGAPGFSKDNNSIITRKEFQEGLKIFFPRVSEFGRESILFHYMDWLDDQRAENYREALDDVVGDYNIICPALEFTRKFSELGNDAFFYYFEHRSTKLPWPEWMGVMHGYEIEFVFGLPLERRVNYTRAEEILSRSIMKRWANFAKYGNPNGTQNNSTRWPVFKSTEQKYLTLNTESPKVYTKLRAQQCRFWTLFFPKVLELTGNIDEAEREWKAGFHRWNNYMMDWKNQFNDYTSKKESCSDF

Mus musculus [15] = assay: Acute toxicity in mouse assessed as abnormal changes in kidney at 2000 mg/kg, po measured continuously for first 4 hrs and intermittently for next 24 hrs and occasionally for 14 days by hematoxylin and eosin staining based microscopic method; type: organism-based; settings: in vivo
Mus musculus [16] = assay: Acute toxicity in mouse assessed as mortality at 677 to 2000 mg/kg, po measured continuously for first 4 hrs and intermittently for next 24 hrs and occasionally for 14 days; type: organism-based; settings: in vivo
[17] = target: Amyloid-beta precursor protein (Homo sapiens) (UniProt P05067); assay: Inhibition of self-induced amyloid beta 42 (unknown origin) aggregation at 20 uM incubated for 46 to 48 hrs by thioflavin-T fluorescence assay relative to control
Sequence of Amyloid-beta precursor protein (Homo sapiens) (P05067 whole entry): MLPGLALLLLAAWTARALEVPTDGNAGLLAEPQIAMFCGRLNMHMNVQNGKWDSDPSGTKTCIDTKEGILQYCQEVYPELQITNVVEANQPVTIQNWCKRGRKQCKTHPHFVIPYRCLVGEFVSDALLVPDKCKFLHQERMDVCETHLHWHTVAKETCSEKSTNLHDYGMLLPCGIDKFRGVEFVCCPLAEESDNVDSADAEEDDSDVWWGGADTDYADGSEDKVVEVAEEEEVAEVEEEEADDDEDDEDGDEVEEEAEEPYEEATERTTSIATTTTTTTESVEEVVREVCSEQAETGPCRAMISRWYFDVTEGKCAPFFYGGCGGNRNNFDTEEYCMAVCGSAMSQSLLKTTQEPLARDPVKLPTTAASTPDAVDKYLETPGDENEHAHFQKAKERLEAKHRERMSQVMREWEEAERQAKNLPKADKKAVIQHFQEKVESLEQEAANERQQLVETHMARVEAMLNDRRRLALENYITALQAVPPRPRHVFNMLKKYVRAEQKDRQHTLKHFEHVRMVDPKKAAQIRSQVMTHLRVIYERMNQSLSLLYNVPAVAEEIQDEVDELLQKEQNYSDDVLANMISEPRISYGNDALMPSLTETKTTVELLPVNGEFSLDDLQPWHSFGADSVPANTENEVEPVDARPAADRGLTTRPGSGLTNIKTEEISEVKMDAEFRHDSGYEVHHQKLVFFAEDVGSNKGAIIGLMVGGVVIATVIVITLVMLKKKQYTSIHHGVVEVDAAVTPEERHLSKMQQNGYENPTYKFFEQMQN

[18] = Antioxidant activity assessed as ABTS radical cation scavenging activity by measuring trolox equivalent antioxidant capacity measured at 6 mins; type: functional
PC-12 [19] = assay: Neuroprotective activity against H2O2-induced apoptosis in rat PC12 cells assessed as early apoptotic cells at 10 uM after 24 hrs by Annexin V-FITC/propidium iodide staining-based flow cytometry (reference value: 1.4%); type: functional
Mus musculus [20] = assay: Reversal of scopolamine-induced memory impairment in ICR mouse assessed as increase in step-through latency time administered orally for 10 consecutive days and 60 mins prior to training trial followed by scopolamine challenge at 30 mins post dose measured 24 hrs after training trial by passive avoidance test; type: functional, organism-based
Mus musculus [21] = assay: Toxicity in ICR mouse assessed as emesis at 5 to 10 mg/kg, po administered for 10 consecutive days; type: organism-based; settings: in vivo
Acetylcholinesterase = Acetylcholinesterase (Homo sapiens, UniProt P22303); assay: Inhibition of human erythrocyte AChE using acetylthiocholine chloride as substrate incubated for 5 mins followed by substrate addition measured after 180 secs by Ellman's method
Sequence of Acetylcholinesterase (P22303 whole entry): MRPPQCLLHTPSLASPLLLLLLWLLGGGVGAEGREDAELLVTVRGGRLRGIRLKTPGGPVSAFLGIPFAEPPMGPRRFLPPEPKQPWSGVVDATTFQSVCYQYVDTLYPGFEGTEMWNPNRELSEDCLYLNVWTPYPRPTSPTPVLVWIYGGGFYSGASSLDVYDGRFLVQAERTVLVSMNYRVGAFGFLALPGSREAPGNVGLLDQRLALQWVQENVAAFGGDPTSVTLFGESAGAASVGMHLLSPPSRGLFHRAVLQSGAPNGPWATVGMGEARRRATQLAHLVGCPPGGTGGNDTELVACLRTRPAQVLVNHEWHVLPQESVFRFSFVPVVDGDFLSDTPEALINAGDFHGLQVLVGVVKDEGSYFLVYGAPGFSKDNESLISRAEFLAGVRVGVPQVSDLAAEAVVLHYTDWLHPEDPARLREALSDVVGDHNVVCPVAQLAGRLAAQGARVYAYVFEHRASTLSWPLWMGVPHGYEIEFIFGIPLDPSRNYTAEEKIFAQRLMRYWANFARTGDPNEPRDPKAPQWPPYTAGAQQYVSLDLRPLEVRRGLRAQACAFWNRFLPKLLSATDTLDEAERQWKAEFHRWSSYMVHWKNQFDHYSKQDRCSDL

Mus musculus [22] = assay: Acute toxicity in mouse assessed as abnormal changes in brain at 2000 mg/kg, po measured continuously for first 4 hrs and intermittently for next 24 hrs and occasionally for 14 days by hematoxylin and eosin staining based microscopic method; type: organism-based; settings: in vivo
PC-12 [23] = assay: Neuroprotective activity against H2O2-induced apoptosis in rat PC12 cells assessed as viable cells at 5 uM after 24 hrs by Annexin V-FITC/propidium iodide staining-based flow cytometry (reference value: 68.4%); type: functional; settings: PC-12, 24 h, read-out: Activity
PC-12 [24] = assay: Cytotoxicity against rat PC12 cells assessed as decrease in cell viability at 30 uM after 24 hrs by MTT assay; type: cell-based; settings: pc-12, 24 h
Mus musculus [25] = assay: Acute toxicity in mouse assessed as body weight change at 677 to 2000 mg/kg, po measured continuously for first 4 hrs and intermittently for next 24 hrs and occasionally for 14 days; type: organism-based; settings: in vivo
[26] = target: Amyloid-beta precursor protein (Homo sapiens) (UniProt P05067); assay: Inhibition of AChE-induced amyloid beta 40 (unknown origin) aggregation at 100 uM by thioflavin-T fluorescence assay relative to control
PC-12 [27] = assay: Neuroprotective activity against H2O2-induced apoptosis in rat PC12 cells assessed as early apoptotic cells at 2.5 uM after 24 hrs by Annexin V-FITC/propidium iodide staining-based flow cytometry (reference value: 1.4%); type: functional
PC-12 [28] = assay: Neuroprotective activity against H2O2-induced apoptosis in rat PC12 cells assessed as early apoptotic cells at 5 uM after 24 hrs by Annexin V-FITC/propidium iodide staining-based flow cytometry (reference value: 1.4%); type: functional

SMILES: CC(C)(C)c1cc(/C=C/C(=O)NCCC2CCN(Cc3ccccc3F)CC2)cc(C(C)(C)C)c1O
- Activity (PC-12 [1]): 1.6%
- Flu intensity (PC-12 [2]): 347633
- viability at 2.5 µM (PC-12 [3]): 81.5%
- Flu intensity (BV-2 [4]): 390948
- Activity (PC-12 [5]): 3.5%
- viability at 10 µM (PC-12 [6]): 92.4%
- inhibition (BV-2 [7]): Dose-dependent effect
- Papp at 16 h [8]: 5.5 ×10⁻⁶ cm/s
- Activity (Mus musculus [9]): Non-Toxic
- Activity (Mus musculus [10]): Non-Toxic
- Activity (mmolequiv/mmol) [11]: 1.64
- Activity (PC-12 [12]): 2.5%
- Activity (Mus musculus [13]): Non-Toxic
- inhibition [14]: 48%
- Activity (Mus musculus [15]): Non-Toxic
- Activity (Mus musculus [16]): Non-Toxic
- inhibition [17]: 43.5 to 56.7%
- Activity (mmolequiv/mmol) [18]: 0.82
- Activity (PC-12 [19]): 0.3%
- Activity (Mus musculus [20]): Dose-dependent effect
- Activity (Mus musculus [21]): Non-Toxic
- IC50 (Acetylcholinesterase): 750 nM
- Activity (Mus musculus [22]): Non-Toxic
- viability at 5 µM (PC-12 [23]): 88.3%
- Activity (PC-12 [24]): Toxic
- Activity (Mus musculus [25]): Non-Toxic
- inhibition [26]: 40.1%
- Activity (PC-12 [27]): 0.2%
- Activity (PC-12 [28]): 0.3%
